“Also recorded” adds a separate entry of the source. Read-outs that look alike come from different tables or passages of the source.
Legend:
[1] = target: T1, D1 dopamine receptor (Rattus norvegicus, UniProt P18901); test: Dopamine D1 binding assay ([3H]SCH 23390); settings: Table III; rat striatal membranes; read-out: D1 receptor binding affinity Ki
T1 construct: rat striatal membranes; from tissue; host or cells: rat striatum membranes
Method: The final radioligand concentration was 0.5 nM.

[2] = target: T2, D2 dopamine receptor (Rattus norvegicus, UniProt P61169); test: Dopamine D2 binding assay ([3H]Sulpiride)
T2 construct: rat striatal membranes; from tissue; host or cells: rat striatum membranes
Method: The final ligand concentration was 0.5 nM.

[3] = target: alpha2-adrenergic receptor; test: Alpha2-adrenergic (non-selective) binding assay ([3H]RX 781094); set-up: species or system rat
[4] = test system: non-habituated male Swiss-Webster mice; test: Locomotor dose-effect test; type: in vivo
Method: Compounds of this invention were tested to evaluate any depressant effect upon locomotor activity on non-habituated and cocaine-influenced mice. Locomotor activity was measured in photocell cages. A panel of infrared beams was located in the horizontal direction along all 4 sides of each activity cage. Horizontal photocell beam interruptions were recorded by a computer in 10 minute intervals.
Non-habituated male Swiss-Webster served as subjects in this experiment. The mice were injected via the intraperitoneal (IP) route with a methycellulose vehicle or a test compound, comprising trans-9 or cis-9, and placed singly in cages for 20 minutes. After this 20 minute period, mice were injected with saline IP, placed in individual photocell cages and testing for effects upon locomotor activity was begun. Eight mice were tested at each dose level. Experimental sessions were 60 minutes in duration with horizontal locomotor activity recorded in 10 minute intervals. Within each 10 minute interval, the data from all subjects are averaged.
The results of these tests were provided in FIGS. 1a, 1b, 2a and 2b, as well as in Table XI. […] Data were analyzed by a one-way ANOVA computed across doses using a long10 transformation of the horizontal activity counts. Comparisons between vehicle and each dose of the compounds tested were made by a priori contrasts. Doses of the compounds tested, which produced a statistically significant (p<0.05) decrease in locomotor activity relative to vehicle control, are denoted with an asterisk. […] The horizontal activity counts were regressed against the log10 dose of the test compound.

[5] = test system: male Sprague-Dawley albino rats; test: Stereotypy evaluation for dopaminergic activity; type: in vivo; settings: IP
Method: Young, adult, male Sprague-Dawley (Charles River) albino rats (200-250 g) served as subjects in this experiment. The rats were injected IP with each dose of (±)-trans-9 or (±)-cis-9. Six rats were tested at each dose. Experimental sessions were 60 minutes in duration. The tests were performed and rated in accordance with the method described in Campbell et al., Psychopharmacology, 88:158 (1986). Each rat was rated with a score of 0 to 3, where 0 represents no sterotypy.

[6] = target: T3, D3 (human) receptor (Homo sapiens, UniProt P35462); test: D2:D3:D4 competition binding assay, D3 ([3H]-spiperone); settings: in words, Example 26
T3 construct: expressed in transfected cells
Method: (§1) To determine the D2, D3 or D4 receptor selectivity, competition binding assays were performed using membranes from fibroblast cell lines transfected with D2444 (rat), D3 (human) or D4 (rat) receptors. All cell lines were maintained in Dulbecco's modified Eagle's media (DMEM) supplemented with 10 % fetal bovine serum at 37° C. with 5% CO2. Transfected cells were maintained in DMEM containing 300 μg/mL of the antibiotic G418 (Gibco).
Nuclei were removed by centrifugation for five minutes at 600 g at 4° C., membranes were pelleted for 25 minutes at 50,000 g. Membrane protein was resuspended in homogenization buffer (0.32M sucrose, 0.0025M Tris, pH 6.9 at 20° C.) and incubated at 37° C. for 15 minutes. Membrane protein was pelleted, resuspended in water and stored at -70° C.
The compositions were tested in varying concentrations between 1 nM and 100 μM. Non-specific binding was determined using 1 μM eticlopride.
After addition of all components, the samples were incubated for 15 minutes at 37° C., terminated with 50 mM Tris-HCl (pH 7.4 at 4° C.) and collected on glass-fiber filters on a Brandel cell harvester. […] Each composition was evaluated in duplicate experiments.

[7] = target: T4, D2 receptor (Sus scrofa, UniProt F1SM69); test: D2:D4 comparative binding assay, D2 (pig anterior pituitary)
T4 construct: pig anterior pituitary tissue; from tissue; host or cells: pig anterior pituitary
Method: (§2) To evaluate D2 versus D4 receptor selectivity, comparative binding assays were performed to compare the binding affinities of compositions of this invention for cloned D2 and D4 receptors.
(§3) The D2 assay was prepared from pig anterior pituitary tissue as described in Seeman et al., Molecular Pharmacology, 28:391 (1985). The D4 assay contained membranes prepared from COS-7 cells transfected with a 3.9 kb cDNA-gene fusion construct as described in H. H. M. Vantol, Nature, 350:610 (1991).
(§4) Binding assays were done using the methods described in by Seeman and Vantol. [^3 H]-spiperone (New England Nuclear, Boston, Mass.). The compositions were tested varying concentrations.
(§5) After addition of all components, the samples were incubated for 15 minutes at 37° C., terminated with 50 mM Tris-HCl (pH 7.4 at 20° C.) and collected on glass-fiber filters on a Brandel cell harvester. Radioactivity retained on the filters was counted on a Beckman LS 1701 scintillation counter and data were analyzed by non-linear least squares regression methods.

[8] = target: T5, D4 receptor (Homo sapiens, UniProt P21917, DEL265-296); test: D2:D4 comparative binding assay, D4 (COS-7 cells)
T5 construct: expressed in transfected cells; host or cells: COS-7 cells
Method: as §2, §3, §4, §5

[9] = target: T6, D2 receptor (Rattus norvegicus, UniProt P61169); test: D2 receptor agonist evaluation (membrane binding with and without Gpp(NH)p)
T6 construct: expressed in transfected cells
Method: as §1
To determine whether or not compounds of this invention were D2 receptor agonists, a membrane binding assay, utilizing the D2 cell line described in Example 26, was performed in the presence and absence of the non-hydrolyzable guanine nucleotide (GTP analogue) Gpp(NH)p.

[10] = test system: alpha1-adrenergic receptor
Method: In these assays, the binding reaction was initiated by the addition of varying concentrations of the potential binding composition and a radioligand to an appropriate tissue. The assay was then incubated to allow binding. Binding was then terminated by dilution of the assay with a cold buffer, followed by rapid vacuum filtration onto Whatman GI/C filters that were presoaked in 0.1% polyethylene imine for at least 3 hours. Radioactivity trapped onto the filters was determined and compared to control values in order to ascertain any interactions of test compounds with the binding sites. Binding affinity analyses were performed by Novascreen, Division of the Adheron Corporation, Hanover, Md.
Incubation was conducted in 50 mM TRIS-HCl (pH 7.7) at 25° C. for 60 minutes. […] The final ligand concentration was 0.5 nm.

[11] = test system: 5HT1 serotonin receptor; test: Serotonin (5HT1) binding assay
Method: In these assays, the binding reaction was initiated by the addition of varying concentrations of the potential binding composition and a radioligand to an appropriate tissue. The assay was then incubated to allow binding. Binding was then terminated by dilution of the assay with a cold buffer, followed by rapid vacuum filtration onto Whatman GI/C filters that were presoaked in 0.1% polyethylene imine for at least 3 hours. Radioactivity trapped onto the filters was determined and compared to control values in order to ascertain any interactions of test compounds with the binding sites.
Incubation was conducted in 50 mM TRIS-HCl (pH 7.4) at 45 minutes for 37° C. The radioligand used was [^3 H]Hydroxytryptamine binoxalate (15-30 Ci/mmol). The final ligand concentration was 3.0 nM.

T6 sequence (P61169 whole entry): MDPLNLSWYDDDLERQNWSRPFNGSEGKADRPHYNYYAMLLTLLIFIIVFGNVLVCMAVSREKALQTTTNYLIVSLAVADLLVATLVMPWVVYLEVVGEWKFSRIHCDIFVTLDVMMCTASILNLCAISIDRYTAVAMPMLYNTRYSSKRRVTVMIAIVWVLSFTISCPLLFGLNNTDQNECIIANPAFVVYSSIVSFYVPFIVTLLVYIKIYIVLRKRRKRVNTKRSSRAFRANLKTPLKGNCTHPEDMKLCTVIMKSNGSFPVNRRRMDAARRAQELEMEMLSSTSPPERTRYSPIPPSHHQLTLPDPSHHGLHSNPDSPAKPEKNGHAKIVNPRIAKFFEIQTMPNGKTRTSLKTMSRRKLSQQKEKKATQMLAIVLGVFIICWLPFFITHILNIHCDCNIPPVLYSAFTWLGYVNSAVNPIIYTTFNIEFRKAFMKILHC
T2 sequence (P61169 whole entry): as above
T4 sequence (F1SM69 1-443): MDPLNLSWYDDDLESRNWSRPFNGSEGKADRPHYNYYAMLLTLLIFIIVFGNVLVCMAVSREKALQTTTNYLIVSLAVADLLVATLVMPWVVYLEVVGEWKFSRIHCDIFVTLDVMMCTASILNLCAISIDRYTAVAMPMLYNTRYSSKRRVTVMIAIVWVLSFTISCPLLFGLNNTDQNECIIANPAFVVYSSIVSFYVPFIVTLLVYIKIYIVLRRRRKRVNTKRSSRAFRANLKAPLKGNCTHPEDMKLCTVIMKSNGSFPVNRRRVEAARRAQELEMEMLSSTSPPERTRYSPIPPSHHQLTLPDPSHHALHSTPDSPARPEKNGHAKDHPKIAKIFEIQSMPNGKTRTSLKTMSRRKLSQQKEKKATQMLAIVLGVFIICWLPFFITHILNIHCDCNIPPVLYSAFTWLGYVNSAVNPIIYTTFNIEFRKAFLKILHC
T3 sequence (P35462 whole entry): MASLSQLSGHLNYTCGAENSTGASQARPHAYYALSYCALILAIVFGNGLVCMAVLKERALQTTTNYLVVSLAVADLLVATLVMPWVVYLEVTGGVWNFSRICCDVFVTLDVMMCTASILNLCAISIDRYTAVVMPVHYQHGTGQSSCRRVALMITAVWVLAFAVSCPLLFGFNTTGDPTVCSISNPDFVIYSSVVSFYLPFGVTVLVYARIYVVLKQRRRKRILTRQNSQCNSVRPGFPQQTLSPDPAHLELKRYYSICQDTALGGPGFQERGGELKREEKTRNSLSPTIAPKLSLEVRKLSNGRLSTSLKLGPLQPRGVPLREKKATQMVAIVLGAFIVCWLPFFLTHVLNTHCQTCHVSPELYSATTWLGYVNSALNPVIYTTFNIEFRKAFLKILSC
T1 sequence (P18901 whole entry): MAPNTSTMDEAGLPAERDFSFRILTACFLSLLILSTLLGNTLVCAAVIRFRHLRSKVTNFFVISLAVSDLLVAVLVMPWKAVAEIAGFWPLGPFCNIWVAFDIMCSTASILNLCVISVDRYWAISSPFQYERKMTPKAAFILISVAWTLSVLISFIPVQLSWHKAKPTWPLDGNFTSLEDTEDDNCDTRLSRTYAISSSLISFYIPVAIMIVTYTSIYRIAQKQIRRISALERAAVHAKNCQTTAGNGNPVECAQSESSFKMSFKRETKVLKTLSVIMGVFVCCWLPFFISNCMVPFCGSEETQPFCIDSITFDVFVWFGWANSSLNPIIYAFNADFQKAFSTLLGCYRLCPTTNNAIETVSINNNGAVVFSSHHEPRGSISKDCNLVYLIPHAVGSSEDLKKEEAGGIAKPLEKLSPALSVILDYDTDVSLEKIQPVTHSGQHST
T5 sequence (P21917 other isoform, or with tags, fused parts or gaps DEL265-296): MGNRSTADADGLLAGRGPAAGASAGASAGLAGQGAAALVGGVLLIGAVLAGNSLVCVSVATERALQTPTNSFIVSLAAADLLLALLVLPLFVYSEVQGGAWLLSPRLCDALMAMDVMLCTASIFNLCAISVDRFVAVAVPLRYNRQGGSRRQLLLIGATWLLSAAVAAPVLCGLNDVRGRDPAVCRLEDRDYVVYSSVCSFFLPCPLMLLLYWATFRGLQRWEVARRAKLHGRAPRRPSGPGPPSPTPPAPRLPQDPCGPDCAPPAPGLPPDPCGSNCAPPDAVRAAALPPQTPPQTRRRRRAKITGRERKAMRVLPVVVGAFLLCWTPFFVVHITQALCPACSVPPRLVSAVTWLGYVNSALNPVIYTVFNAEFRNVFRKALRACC

Oc1ccc2c(c1O)CC[C@@H]1[C@@H]2CCCN1CCc1ccccc1 (relative stereo) [trans-9, trans-7,8-dihydroxy-4-phenethyl-1,2,3,4,4a,-5,6,10b-octahydrobenzo[f]quinoline]
Ki [1]: 3600 nM
Ki [2]: 2.2 nM
dopamine receptor binding affinity ([2]; in words): good dopamine receptor binding affinities
selectivity for the D2 over the D1 dopamine receptor ([2]; in words): highly selective for the D2 dopamine receptor over the D1 dopamine receptor
Ki ([3]; Table III, rat cortical membranes, read-out: α2 receptor binding affinity Ki): 22 nM
α2 receptor binding affinity ([3]; in words): high binding affinities for the α2 receptor
decrease in locomotor activity, overall assessment ([4]; IP, in words): strong agonist in inducing a decrease in locomotor activity in mice
suppression of locomotor activity ([4]; IP, in words): marked suppression of locomotor activity when initially tested at 10 mg/kg; also recorded: Marked suppression was still evident at 0.1 mg/kg
ED50 ([4]; Mus musculus, read-out: ED50 (dose which produced 50% maximal depressant activity), IP, horizontal locomotor activity): 0.038 mg/kg
stereotypy score ([5]; 0.0001 mg/kg): 6.5 ± 0.4
stereotypy score ([5]; 0.001 mg/kg): 10.0 ± 0.9
stereotypy score ([5]; 0.003 mg/kg): 8.2 ± 0.8
stereotypy score ([5]; 0.01 mg/kg): 7.2 ± 0.6
stereotypy score ([5]; 0.03 mg/kg): 6.5 ± 0.5
stereotypy score ([5]; 0.1 mg/kg): 6.0 ± 0.7
stereotypy score ([5]; 0.3 mg/kg): 1.7 ± 0.5
stereotypy score ([5]; 1.0 mg/kg): 0.3 ± 0.2
stereotypy score ([5]; 3.0 mg/kg): 0.2 ± 0.2
stereotypy score ([5]; 10.0 mg/kg): 0.0
induction of stereotypy, dopamine agonism ([5]; in words): appears to be a strong agonist as it induced stereotypy in rats
selectivity for the D3 receptor [6]: highly selective for the D3 receptor over the D2 or D4 receptors
Ki [7]: 6.9 nM
Ki [8]: 2.4 nM
Ratio of +:- Gpp(NH)p ([9]; Table XV): 8.82
Ki ([9]; Table XV, with Gpp(NH)p, read-out: D2 receptor binding Ki with Gpp(NH)p): 924 ± 1840 nM
Ki ([9]; Table XV, without Gpp(NH)p, read-out: D2 receptor binding Ki without Gpp(NH)p): 105 ± 29 nM
D2 agonist/antagonist assessment ([9]; in words): appear to be agonists
effect of GTP on D2 receptor binding ([9]; in words): D2 receptor binding was enhanced by the addition of GTP
α1 receptor binding affinity ([10]; in words): high binding affinities for the α1 receptor
Ki ([10]; read-out: α1 receptor binding affinity Ki, Table III, rat forebrain membranes): 80 nM
5HT1 serotonin receptor binding affinity ([11]; in words): high binding affinity for the 5HT1 serotonin receptor
Ki ([11]; read-out: 5-HT1 receptor binding affinity Ki, Table III, rat cortical membranes): 150 nM
